From PMC5218480 (PLoS ONE, 2017)

System: MV-4-11 cells
Assay: Gene expression microarray analysis (Affymetrix PrimeView) and GSEA
Type: cell-based, human
Parameters: RFU PODN (11730768_x_at) / Fold change /veh PODN (11730768_x_at) / RFU LINC00158 (11744669_a_at) / Fold change /veh LINC00158 (11744669_a_at) / RFU DUSP10 (11751237_a_at) / Fold change /veh DUSP10 (11751237_a_at) / RFU ID3 (11757404_x_at) / Fold change /veh ID3 (11757404_x_at) / RFU PLEKHG5 (11737974_s_at) / Fold change /veh PLEKHG5 (11737974_s_at) / RFU LRRC4B (11730491_at) / Fold change /veh LRRC4B (11730491_at) / RFU GIMAP4 (11747438_a_at) / Fold change /veh GIMAP4 (11747438_a_at) / RFU KRT8 (11758183_x_at) / Fold change /veh KRT8 (11758183_x_at) / RFU CNN1 (11734310_a_at) / Fold change /veh CNN1 (11734310_a_at) / RFU VPS37D (11726825_at) / Fold change /veh VPS37D (11726825_at) / RFU C10orf10 (11716522_x_at) / Fold change /veh C10orf10 (11716522_x_at) / RFU KIR2DL2 /// KIR2DL4 /// KIR2DL5A /// KIR2DL5B /// KIR2DS1 /// KIR2DS2 /// KIR2DS3 /// KIR2DS4 /// KIR3DL3 /// KIR3DL3 /// KIR3DS1 (11738374_at) / Fold change /veh KIR2DL2 /// KIR2DL4 /// KIR2DL5A /// KIR2DL5B /// KIR2DS1 /// KIR2DS2 /// KIR2DS3 /// KIR2DS4 /// KIR3DL3 /// KIR3DL3 /// KIR3DS1 (11738374_at) / RFU C1QL1 (11718748_at) / Fold change /veh C1QL1 (11718748_at) / RFU TMPRSS4 (11747572_a_at) / Fold change /veh TMPRSS4 (11747572_a_at) / RFU HAMP (11756126_x_at) / Fold change /veh HAMP (11756126_x_at) / RFU RNFT2 (11725882_a_at) / Fold change /veh RNFT2 (11725882_a_at) / RFU NR4A2 (11747474_a_at) / Fold change /veh NR4A2 (11747474_a_at) / RFU ABCC12 (11746883_a_at) / Fold change /veh ABCC12 (11746883_a_at) / RFU TMEM136 (11760407_x_at) / Fold change /veh TMEM136 (11760407_x_at) / RFU CLDN22 /// WWC2 (11732394_at) / Fold change /veh CLDN22 /// WWC2 (11732394_at) / RFU HLA-DPB1 (11760878_x_at) / Fold change /veh HLA-DPB1 (11760878_x_at) / RFU SPINT1 (11716480_a_at) / Fold change /veh SPINT1 (11716480_a_at) / RFU GAP43 (11754022_s_at) / Fold change /veh GAP43 (11754022_s_at) / RFU A4GNT (11735810_at) / Fold change /veh A4GNT (11735810_at) / RFU PRB3 (11715151_x_at) / Fold change /veh PRB3 (11715151_x_at) / RFU TUBB4B (11761932_at) / Fold change /veh TUBB4B (11761932_at) / RFU CAPN14 (11732068_a_at) / Fold change /veh CAPN14 (11732068_a_at) / RFU TMCC2 (11721928_a_at) / Fold change /veh TMCC2 (11721928_a_at) / RFU IRGQ (11745062_a_at) / Fold change /veh IRGQ (11745062_a_at) / RFU FAM174B (11720279_a_at) / Fold change /veh FAM174B (11720279_a_at) / RFU TMPRSS4 (11748680_a_at) / Fold change /veh TMPRSS4 (11748680_a_at) / RFU FAM212B (11763350_a_at) / Fold change /veh FAM212B (11763350_a_at) / RFU PLEKHG5 (11743358_a_at) / Fold change /veh PLEKHG5 (11743358_a_at) / RFU ZSCAN30 (11745921_a_at) / Fold change /veh ZSCAN30 (11745921_a_at) / RFU CMKLR1 (11741424_a_at) / Fold change /veh CMKLR1 (11741424_a_at) / RFU LOC101060620 /// MAPK8IP1 (11723275_at) / Fold change /veh LOC101060620 /// MAPK8IP1 (11723275_at) / RFU SPTSSB (11747773_x_at) / Fold change /veh SPTSSB (11747773_x_at) / RFU PRSS12 (11739890_at) / Fold change /veh PRSS12 (11739890_at) / RFU BIN1 (11741810_x_at) / Fold change /veh BIN1 (11741810_x_at) / RFU WNT11 (11732464_a_at) / Fold change /veh WNT11 (11732464_a_at) / RFU C10orf10 (11716521_a_at) / Fold change /veh C10orf10 (11716521_a_at) / RFU C5orf56 (11738089_at) / Fold change /veh C5orf56 (11738089_at) / RFU CYB561 (11721691_x_at) / Fold change /veh CYB561 (11721691_x_at) / RFU ANKRD19P (11752326_a_at) / Fold change /veh ANKRD19P (11752326_a_at) / RFU OR2T12 /// OR2T33 /// OR2T8 (11738714_s_at) / Fold change /veh OR2T12 /// OR2T33 /// OR2T8 (11738714_s_at) / RFU VCAN (11748164_a_at) / Fold change /veh VCAN (11748164_a_at) / RFU JSRP1 (11732532_at) / Fold change /veh JSRP1 (11732532_at) / RFU KRTAP10-11 (11738290_x_at) / Fold change /veh KRTAP10-11 (11738290_x_at) / RFU MYO3A (11730013_a_at) / Fold change /veh MYO3A (11730013_a_at) / RFU EBF3 (11725865_a_at) / Fold change /veh EBF3 (11725865_a_at) / RFU CAMK2N1 (11719241_x_at) / Fold change /veh CAMK2N1 (11719241_x_at) / RFU C5orf56 (11738088_a_at) / Fold change /veh C5orf56 (11738088_a_at) / RFU OLFML3 (11715873_a_at) / Fold change /veh OLFML3 (11715873_a_at) / RFU LOC100653217 /// NTM (11731650_a_at) / Fold change /veh LOC100653217 /// NTM (11731650_a_at) / RFU MAPK11 (11762145_a_at) / Fold change /veh MAPK11 (11762145_a_at) / RFU FIZ1 (11724087_x_at) / Fold change /veh FIZ1 (11724087_x_at) / RFU OASL (11726364_x_at) / Fold change /veh OASL (11726364_x_at) / RFU SOX15 (11748057_x_at) / Fold change /veh SOX15 (11748057_x_at) / RFU CD79A (11719716_a_at) / Fold change /veh CD79A (11719716_a_at) / RFU HIST1H1D (11736915_at) / Fold change /veh HIST1H1D (11736915_at) / RFU CASKIN2 (11723855_a_at) / Fold change /veh CASKIN2 (11723855_a_at) / RFU LOC730098 (11760151_x_at) / Fold change /veh LOC730098 (11760151_x_at) / RFU OR4N2 (11742367_at) / Fold change /veh OR4N2 (11742367_at) / RFU PRRT2 (11749266_a_at) / Fold change /veh PRRT2 (11749266_a_at) / RFU SNX32 (11753110_a_at) / Fold change /veh SNX32 (11753110_a_at) / RFU CDHR5 (11726645_a_at) / Fold change /veh CDHR5 (11726645_a_at) / RFU RCAN1 (11760418_a_at) / Fold change /veh RCAN1 (11760418_a_at) / RFU FAM167A (11723789_a_at) / Fold change /veh FAM167A (11723789_a_at) / RFU FAM26E (11764081_at) / Fold change /veh FAM26E (11764081_at) / RFU ISYNA1 (11749810_s_at) / Fold change /veh ISYNA1 (11749810_s_at) / RFU ACY1 (11761880_at) / Fold change /veh ACY1 (11761880_at) / RFU 11764098_at / Fold change /veh 11764098_at / RFU SAMD14 (11745864_x_at) / Fold change /veh SAMD14 (11745864_x_at) / RFU NPB (11741838_a_at) / Fold change /veh NPB (11741838_a_at) / RFU TMPRSS6 (11731388_a_at) / Fold change /veh TMPRSS6 (11731388_a_at) / RFU KRTAP10-2 (11738614_at) / Fold change /veh KRTAP10-2 (11738614_at) / RFU ARHGAP8 /// PRR5-ARHGAP8 (11727945_x_at) / Fold change /veh ARHGAP8 /// PRR5-ARHGAP8 (11727945_x_at) / RFU KRTAP5-7 /// NADSYN1 (11734609_at) / Fold change /veh KRTAP5-7 /// NADSYN1 (11734609_at) / RFU RASL12 (11751679_a_at) / Fold change /veh RASL12 (11751679_a_at) / RFU CDKN2B (11736163_a_at) / Fold change /veh CDKN2B (11736163_a_at) / RFU PRF1 (11729649_at) / Fold change /veh PRF1 (11729649_at) / RFU, ZNF638 /// ZNF638-IT1 / Fold change vs veh, ZNF638 /// ZNF638-IT1 / RFU, PANK3 / Fold change vs veh, PANK3 / RFU, SH3YL1 / Fold change vs veh, SH3YL1 / RFU, ZEB2 / Fold change vs veh, ZEB2 / RFU, NRIP1 / Fold change vs veh, NRIP1 / RFU, PTTG1IP / Fold change vs veh, PTTG1IP / RFU, CAPN2 / Fold change vs veh, CAPN2 / RFU, MED14 / Fold change vs veh, MED14 / RFU, SNORA58 / Fold change vs veh, SNORA58 / RFU, C1orf63 / Fold change vs veh, C1orf63 / RFU, LRRFIP1 / Fold change vs veh, LRRFIP1 / RFU, NDUFAF7 / Fold change vs veh, NDUFAF7 / RFU, SLC12A2 / Fold change vs veh, SLC12A2 / RFU, IBTK / Fold change vs veh, IBTK / RFU, ESF1 / Fold change vs veh, ESF1 / Fold change vs veh, TMEM50B / RFU, TAOK1 / Fold change vs veh, TAOK1 / RFU, ACBD3 / Fold change vs veh, ACBD3 / RFU, TMA16 / Fold change vs veh, TMA16 / RFU, RWDD3 / Fold change vs veh, RWDD3 / RFU, BCAT1 / Fold change vs veh, BCAT1 / RFU, EDEM3 / Fold change vs veh, EDEM3 / RFU, TMEM33 / Fold change vs veh, TMEM33 / RFU, WDR75 / Fold change vs veh, WDR75 / RFU, AHCTF1 / Fold change vs veh, AHCTF1 / RFU, TFRC / Fold change vs veh, TFRC / RFU, ZDHHC17 / Fold change vs veh, ZDHHC17 / RFU, NOM1 / Fold change vs veh, NOM1 / RFU, ARL8B / Fold change vs veh, ARL8B / RFU, ZBTB11 / Fold change vs veh, ZBTB11 / RFU, TAMM41 / Fold change vs veh, TAMM41 / RFU, KIAA1704 /// LOC100996395 / Fold change vs veh, KIAA1704 /// LOC100996395 / RFU, ING1 / Fold change vs veh, ING1 / RFU, TRMT61B / Fold change vs veh, TRMT61B / RFU, FUBP3 / Fold change vs veh, FUBP3 / RFU, TP53 / Fold change vs veh, TP53 / RFU, TNKS2 / Fold change vs veh, TNKS2 / RFU, ZFP14 / Fold change vs veh, ZFP14 / RFU, ACTR2 / Fold change vs veh, ACTR2 / RFU, PPP3R1 / Fold change vs veh, PPP3R1 / RFU, PIK3R1 / Fold change vs veh, PIK3R1 / RFU, HNRNPA1 / Fold change vs veh, HNRNPA1 / RFU, RNF170 / Fold change vs veh, RNF170 / RFU, ZNF28 / Fold change vs veh, ZNF28 / RFU, RNGTT / Fold change vs veh, RNGTT / RFU, OGT / Fold change vs veh, OGT / RFU, BRD1 / Fold change vs veh, BRD1 / RFU, MARS / Fold change vs veh, MARS / RFU, ZNF655 / Fold change vs veh, ZNF655 / RFU, FAHD1 / Fold change vs veh, FAHD1 / RFU, BDP1 / Fold change vs veh, BDP1 / RFU, LRRCC1 / Fold change vs veh, LRRCC1 / RFU, ARID1A / Fold change vs veh, ARID1A / RFU, ZNF146 / Fold change vs veh, ZNF146 / RFU, ZNF330 / Fold change vs veh, ZNF330 / RFU, GPN3 / Fold change vs veh, GPN3 / RFU, C9orf123 / Fold change vs veh, C9orf123 / RFU, N4BP2L2 / Fold change vs veh, N4BP2L2 / RFU, ARFIP1 / Fold change vs veh, ARFIP1 / RFU, FAM179B / Fold change vs veh, FAM179B / RFU, BCL10 / Fold change vs veh, BCL10 / RFU, UHRF1BP1L / Fold change vs veh, UHRF1BP1L / RFU, BET1 / Fold change vs veh, BET1 / RFU, CNOT2 / Fold change vs veh, CNOT2 / RFU, ZNF268 / Fold change vs veh, ZNF268 / Fold change vs veh, ZNF507 / RFU, DGCR2 / Fold change vs veh, DGCR2 / RFU, WDSUB1 / Fold change vs veh, WDSUB1 / Fold change vs veh, HSP90B1 /// MIR3652 / RFU, ADSS / Fold change vs veh, ADSS / RFU, GK / Fold change vs veh, GK / RFU, ZNF148 / Fold change vs veh, ZNF148 / RFU, TAF9 / Fold change vs veh, TAF9 / RFU, SLC1A5 / Fold change vs veh, SLC1A5 / RFU, SLMO2 / Fold change vs veh, SLMO2 / RFU, ABCC4 / Fold change vs veh, ABCC4 / RFU, LOC101060439 /// RAP1B / Fold change vs veh, LOC101060439 /// RAP1B / RFU, RFX7 / Fold change vs veh, RFX7 / RFU, GTPBP10 / Fold change vs veh, GTPBP10 / RFU, CNEP1R1 / Fold change vs veh, CNEP1R1 / RFU, BIVM-ERCC5 /// ERCC5 / Fold change vs veh, BIVM-ERCC5 /// ERCC5 / RFU, ILF3 / Fold change vs veh, ILF3 / RFU 11762660_at / Fold change /veh 11762660_at / RFU VCAN (11757783_s_at) / Fold change /veh VCAN (11757783_s_at) / RFU DDX43 (11728927_at) / Fold change /veh DDX43 (11728927_at) / RFU KRT8 (11758188_x_at) / Fold change /veh KRT8 (11758188_x_at) / RFU NKD1 (11759106_at) / Fold change /veh NKD1 (11759106_at) / RFU SRD5A1 (11742802_a_at) / Fold change /veh SRD5A1 (11742802_a_at) / RFU TPSAB1 /// TPSB2 (11721975_s_at) / Fold change /veh TPSAB1 /// TPSB2 (11721975_s_at) / RFU GSTM3 (11746129_a_at) / Fold change /veh GSTM3 (11746129_a_at) / RFU IL23R (11737362_x_at) / Fold change /veh IL23R (11737362_x_at) / RFU TMEM51 (11727254_a_at) / Fold change /veh TMEM51 (11727254_a_at) / RFU PIWIL2 (11732686_x_at) / Fold change /veh PIWIL2 (11732686_x_at) / RFU ORM1 (11744905_x_at) / Fold change /veh ORM1 (11744905_x_at) / RFU CCDC152 (11743942_at) / Fold change /veh CCDC152 (11743942_at) / RFU ECM1 (11717891_a_at) / Fold change /veh ECM1 (11717891_a_at) / RFU IL23R (11748794_a_at) / Fold change /veh IL23R (11748794_a_at) / RFU TNFAIP8L3 (11732012_x_at) / Fold change /veh TNFAIP8L3 (11732012_x_at) / RFU MBOAT4 (11741988_at) / Fold change /veh MBOAT4 (11741988_at) / RFU 11764193_at / Fold change /veh 11764193_at / RFU TMEM53 (11763286_at) / Fold change /veh TMEM53 (11763286_at) / RFU MAGEB2 (11727129_at) / Fold change /veh MAGEB2 (11727129_at) / RFU TMEM200A (11744735_a_at) / Fold change /veh TMEM200A (11744735_a_at) / RFU CCDC152 (11751479_a_at) / Fold change /veh CCDC152 (11751479_a_at) / RFU FAM211A (11726209_a_at) / Fold change /veh FAM211A (11726209_a_at) / RFU RGS16 (11746705_a_at) / Fold change /veh RGS16 (11746705_a_at) / RFU VCAN (11755009_s_at) / Fold change /veh VCAN (11755009_s_at) / RFU RHOB (11743442_s_at) / Fold change /veh RHOB (11743442_s_at) / RFU RGS16 (11720943_a_at) / Fold change /veh RGS16 (11720943_a_at) / RFU RGS16 (11720944_at) / Fold change /veh RGS16 (11720944_at) / RFU, VPS4B / Fold change vs veh, VPS4B / RFU, CREB1 / Fold change vs veh, CREB1 / RFU, DNAJC13 / Fold change vs veh, DNAJC13 / RFU, GNAQ / Fold change vs veh, GNAQ / RFU, CDK5R1 / Fold change vs veh, CDK5R1 / RFU, ZRANB3 / Fold change vs veh, ZRANB3 / RFU, CUL4A / Fold change vs veh, CUL4A / RFU, CCNY / Fold change vs veh, CCNY / RFU, UFL1 / Fold change vs veh, UFL1 / RFU, COG3 / Fold change vs veh, COG3 / RFU, DIAPH2 / Fold change vs veh, DIAPH2 / RFU, SKA2 / Fold change vs veh, SKA2 / RFU, AFF3 / Fold change vs veh, AFF3 / RFU, LMF1 / Fold change vs veh, LMF1 / RFU, IPO11 / Fold change vs veh, IPO11 / RFU, DFFB / Fold change vs veh, DFFB / RFU, FOXP1 / Fold change vs veh, FOXP1 / RFU, CARD8 / Fold change vs veh, CARD8 / RFU, STRN3 / Fold change vs veh, STRN3 / RFU, ADK / Fold change vs veh, ADK / RFU, RASSF2 / Fold change vs veh, RASSF2 / RFU, WIPF1 / Fold change vs veh, WIPF1 / RFU, LARP1B / Fold change vs veh, LARP1B / RFU, RASA1 / Fold change vs veh, RASA1 / RFU, RB1 / Fold change vs veh, RB1 / RFU, PPFIA1 / Fold change vs veh, PPFIA1 / RFU, MAT2A / Fold change vs veh, MAT2A / RFU, CCT5 / Fold change vs veh, CCT5 / RFU, WDR92 / Fold change vs veh, WDR92 / RFU, CUX1 / Fold change vs veh, CUX1 / RFU, TTC7A / Fold change vs veh, TTC7A / RFU, TMEM135 / Fold change vs veh, TMEM135 / RFU, DEPTOR / Fold change vs veh, DEPTOR / RFU, CPM / Fold change vs veh, CPM / RFU, DNAJB6 / Fold change vs veh, DNAJB6 / RFU, CACNA2D3 / Fold change vs veh, CACNA2D3 / RFU, DTX4 / Fold change vs veh, DTX4 / RFU, TFCP2 / Fold change vs veh, TFCP2 / RFU, GMCL1 /// GMCL1P1 / Fold change vs veh, GMCL1 /// GMCL1P1 / RFU, AEBP2 / Fold change vs veh, AEBP2 / RFU, SNHG1 /// SNORD22 /// SNORD25 /// SNORD26 /// SNORD27 /// SNORD28 /// SNORD29 /// SNORD31 / Fold change vs veh, SNHG1 /// SNORD22 /// SNORD25 /// SNORD26 /// SNORD27 /// SNORD28 /// SNORD29 /// SNORD31 / Fold change (Aza/veh), C12orf56 (ProbeSet 11735607_a_at) / Fold change (ACY-1035/veh), C12orf56 (ProbeSet 11735607_a_at) / Fold change (Aza/veh), FGFR1OP (ProbeSet 11751329_s_at) / Fold change (ACY-1035/veh), FGFR1OP (ProbeSet 11751329_s_at) / Fold change (Aza/veh), VPS36 (ProbeSet 11739960_a_at) / Fold change (ACY-1035/veh), VPS36 (ProbeSet 11739960_a_at) / RFU SYPL1 (11715823_x_at) / Fold change /veh SYPL1 (11715823_x_at) / RFU IGFBP7 (11715501_s_at) / Fold change /veh IGFBP7 (11715501_s_at) / RFU REEP3 (11722064_at) / Fold change /veh REEP3 (11722064_at) / RFU IGLL1 (11728026_x_at) / Fold change /veh IGLL1 (11728026_x_at): dose or concentration left out as unconfirmed
Conditions: ProbeSet 11728879_at; LIST B

In the case of `Nc1ncn([C@@H]2O[C@H](CO)[C@@H](O)[C@H]2O)c(=O)n1` [azacitidine], the “RFU, PPP3R1” value is reported as 331.25 RFU.
